{
  "source": "patent US10335365B2",
  "about": "“Bladder cancer specific ligand peptides” (The Regents of the University of California, priority 2009, dated 2019)",
  "key": {"[1]": {"test_system": "parental K562 cells or cells transfected other integrins", "assay": "Bead binding to parental K562 cells or cells transfected with other integrins", "conditions": "OBOC beads bearing PLZ4", "experimental": "Here, OBOC beads bearing PLZ4 peptides on the surface were incubated with K562 cells transfected with various integrins. K562 cells express endogenous a501 integrin. […] Several other ligands obtained from the initial screening also contain the DGR motif. […] To identify which amino acids are involved in determining cell binding and binding specificity, “alanine walk” was performed combined with the rainbow bead coding methods (Luo, et al., J Comb Chem, (2008) 10: 599-604). The amino acids aspartic acid (D, the X2 position), arginine (R, X4) and phenylalanine (F, X7) are important for cell binding. Replacement of any of these amino acids with alanine completely abolished the binding of the peptides to 5637 cells (FIG. 6B). […] Methionine at the X5 position could be replaced to many other amino acids without compromising the binding affinity. Based on this analysis, the three amino acids (D, G and R) at the N-terminus together with the two amino acids (G and F) at the C-terminus determine the binding specificity. Therefore, the binding pocket may be in the clover shape: one for the N-terminal three amino acids, one for the C-terminal two amino acids and a middle pocket. So w the depth of the middle binding pocket by adding different numbers of glycine residue to the X5 position. […]"}, "[2]": {"test_system": "cells isolated from urine specimens of patients actively treated with BCG intravesical therapy", "format": "binding, human", "conditions": "4 consecutive patients with no evidence of bladder cancer"}, "K9TCC-PU": {"test_system": "K9TCC-PU", "assay": "Binding affinity by PLZ4-biotin / avidin-HRP on fixed K9TCC-PU cells", "design": "species or system canine", "conditions": "restated in b239 without cell line, read-out: Kd50", "experimental": "(§1) FIG. 8A-B. Binding affinity and biological effects of PLZ4 against canine TCC cell lines. A. Binding affinity of PLZ4 against K9TCC-PU and K9TCC-PU-In. Twenty thousands of K9TCC-PU and K9TCC-PU-In were seeded in 96 well plates. After culture for 24 hours, cells were fixed and incubated with different concentrations of PLZ4-biotin for 1.5 hours following avidin-HRP for another 1 hour. Cells treated with avidin-HRP only were served as background control. The color was developed using TMB substrate and read by ELISA readers. The experiment was performed in triplicates and repeated for 3 times. The mean value of the 3 experiments were shown. B. Biological effects of PLZ4 on canine TCC cell lines. Ten thousand K9TCC-PU-In and K9TCC-PU cells were seeded in the 96 well plates and treated with increasing concentrations of PLZ4 or PBS for 2 days. The cell proliferation assay was assessed by WST-8 assay per manufacturer's protocol. Cells treated with PBS were used as 100% control. Each group was performed in triplicate, repeated for 3 times. Mean values at each concentration are presented.\n(§2) To further quantify the binding affinity, K9TCC-PU and K9TCC-PU-In cells were seeded in 96 well plates, fixed, and incubated with increasing concentrations of PLZ4-biotin followed by avidin-HRP. […]"}, "K9TCC-PU-In": {"test_system": "K9TCC-PU-In", "assay": "Binding affinity by PLZ4-biotin / avidin-HRP on fixed K9TCC-PU-In cells", "design": "species or system canine", "conditions": "restated in b239 without cell line, read-out: Kd50", "experimental": "as §1, §2"}, "K9TCC cells": {"test_system": "K9TCC cells", "assay": "Whole cell binding assay of Example 2, canine TCC cells", "conditions": "PLZ4 beads, 10^6 cells/ml", "experimental": "This experiment was repeated 3 times for cell lines. […] 5637 human bladder cancer cell line; b. […] The average diameter of the beads is 90 μm. […] This experiment was repeated for 3 times. (200×)\nTo determine the binding of PLZ4 to canine TCC cell lines, whole cell binding assay was performed. PLZ4 was synthesized on TentaGel S NH2 resin beads (Rapp Polymere Gmbh, Germany) (Pegram, et al., J Clin Oncol (1998) 16:2659-2671), and incubated with single suspensions of five different canine carcinoma cell lines including K9TCC-PU, K9TCC-PU-AxA, K9TCC-PU-In, K9TCC-PU-AxC, and K9TCC-PU-Nk (kindly provided by Deborah Knapp at Purdue University, West Lafayette, Ind., USA) at 10^6 cells/ml. The negative control was normal urothelial cells obtained from dogs that were euthanized due to non-bladder-related disorders. Human bladder cancer cell line, 5637 were served as the positive control. If PLZ4 bound to cells in suspension, then the bead surface was covered with cells. Over 95% of the bead surface was covered with 5637 and K9TCC cells (FIG. 7A-a and b, respectively)."}, "5637 cells": {"test_system": "5637 cells", "assay": "Flow cytometry binding affinity on 5637 cells", "design": "species or system human", "conditions": "PLZ4-biotin with streptavidin-PE", "experimental": "All of the following steps were done on ice. 5×10^5 5637 cells were washed 3 times with 1 ml cold PBS (pH 7.4)-BSA (1%), re-suspended with 300 μl cold BSA (5%)-PBS (pH 7.4), and then incubated for 1 hour on ice. The cells were centrifuged and suspended with 50 μl PLZ4-biotin solution at 800, 400, 200, 100, 50, 25, 10, 5, 2.5, 1, 0.1, and 0 μM, and incubated for 1 hour on ice. Cells treated without PLZ4-biotin was considered as a control. After washing 6 times with 1 ml cold PBS-Tween-20 (0.05%) buffer, cells were re-suspended with 50 μl streptavidin (SA)-PE (1:500 in PBS-BSA, 1%) (1 mg/ml, Invitrogen, Carlsbad, Calif.), incubated for 1 hour on ice, washed with PBS (pH 7.4) 3 times, re-suspended with 500 μl PBS (pH 7.4), and analyzed using a Coulter Epics XL-MCL flow cytometer (Beckman Coulter, Inc.). The experiment was repeated three times. The mean value was expressed in FIG. 4.\nNext, it was determined if fluorescence cell sorting could be used to identify bladder cancer cells. PLZ4 peptide conjugated to biotin through hydrophilic linkers was synthesized. Biotinylated PLZ4 was then incubated with streptavidin-PE to generate PLZ4-PE conjugate through the strong binding of biotin and streptavidin. […] The binding affinity (Kd) is around 30 μM."}},
  "note": "Positions of bridges follow the written chain, without caps; N, C: chain ends. Non-standard residues stand in square brackets, D forms with d. No end group written: not given here.",
  "data": [
    {"substance": "cQDGRMGFc ([dC]QDGRMGF[dC]; disulfide 1-9 (inferred)) [PLZ4, bladder cancer-specific ligand peptide]", "values": [
      {"measurement": "binding to parental K562 cells or cells transfected with other integrins", "setting": "[1]", "value": "not to the parental K562 cells or cells transfected other integrins"},
      {"measurement": "binding to cells from urine of patients actively treated with BCG", "setting": "[2]", "value": "did not bind"},
      {"measurement": "Kd", "setting": "K9TCC-PU", "value": 21.3, "unit": "µM"},
      {"measurement": "Kd", "setting": "K9TCC-PU-In", "value": 10.3, "unit": "µM"},
      {"measurement": "bead surface covered with cells", "setting": "K9TCC cells", "value": "Over 95%"},
      {"measurement": "Kd", "setting": "5637 cells", "value": "~30", "unit": "µM"}
    ]}
  ]
}
